US20110312914A1, “CARBON MONOXIDE REMOVAL AGENT” (priority 2009, published 2011)

Tests used:
[1] = effect of the cyclodextrin dimer on the urinary excretion of porphyrins, absorbance at 420 nm of urine; type: in vivo; conditions: rat, medical agent containing just the porphyrin (0.5 mM) administered, before Py3CD
Experimental: The influence that the cyclodextrin dimer has on the excretion of the carbon monoxide removal agent in urine was examined. Specifically, each of the porphyrins was administered solitarily into a rat and absorbance at 420 nm, at which each administered porphyrin has a strong absorption band, was measured to examine the amount of the porphyrin excreted into urine. Also, after administration of each porphyrin, the cyclodextrin dimer was administered and the influence thereof was examined. Specifically, an experiment was performed as follows.
Commercially available FeTPPS (made by Frontier Scientific Inc.) and TPPS (made by Tokyo Chemical Industry Co., Ltd.) with the central metal removed from FeTPPS were respectively dissolved separately to a concentration of 0.5 mM in a PBS buffer (pH 7.4) and thereby prepared as medical agents. Also, a Py3CD solution was prepared by dissolving Py3CD to a concentration of 0.6 mM in the PBS buffer (pH 7.4). Further, ultraviolet-visible absorption spectra were measured using the same apparatuses as in EXAMPLE 1.
The medical agent containing FeTPPS was administered continuously to a rat by the syringe pump (1 mL/min). By the same method as in EXAMPLE 1, urine was sampled every 30 minutes from the start of administration and the change with time of the absorbance at 420 nm was examined. […]

[2] = diafiltration test, kidney model using an ultrafiltration membrane (molecular weight cutoff 30,000); type: in vitro ADME
Experimental: The mechanism by which the carbon monoxide removal agent according to the present invention is excreted from blood into urine via kidneys was examined by way of a kidney model using an ultrafiltration membrane. Specifically, an experiment was performed as follows.
FeTPPS, RSA, and Py3CD (procured from the same firms as in EXAMPLE 3) were respectively dissolved in a PBS buffer (pH 7.4) to prepare 0.22 μM solutions. Also, ultraviolet-visible absorption spectra were measured using the same apparatuses as in EXAMPLE 1. As the ultrafiltration membrane, a stirred cell (Model 8050 made by Millipore Corp.) with an ultrafiltration membrane with a molecular weight cutoff of 30,000 attached was used.
Equivalent amounts of the FeTPPS solution and the RSA solution were mixed to prepare an equimolar mixture, and the equimolar mixture solution was placed in the stirred cell that was set above a recovery beaker. While pressurizing with nitrogen gas, a filtrate was recovered at every fixed amount and subject to ultraviolet-visible absorption spectral analysis.
At a point at which 20 mL of the filtrate was recovered, the Py3CD solution was added so that the molar amount of Py3CD was equal to the molar amount of each of FeTPPS and RSA in the residual solution. […]

Serum albumin (RSA) = biological target: T1, Serum albumin (RSA) (Rattus norvegicus, UniProt P02770); experiment: ultraviolet-visible titration of FeTPPS solution with RSA solution; type: binding; conditions: 5×10^−6 M FeTPPS, PBS buffer pH 7.4
T1 construct: purchased SIGMA; Co., Ltd
T1 sequence (P02770 25-608): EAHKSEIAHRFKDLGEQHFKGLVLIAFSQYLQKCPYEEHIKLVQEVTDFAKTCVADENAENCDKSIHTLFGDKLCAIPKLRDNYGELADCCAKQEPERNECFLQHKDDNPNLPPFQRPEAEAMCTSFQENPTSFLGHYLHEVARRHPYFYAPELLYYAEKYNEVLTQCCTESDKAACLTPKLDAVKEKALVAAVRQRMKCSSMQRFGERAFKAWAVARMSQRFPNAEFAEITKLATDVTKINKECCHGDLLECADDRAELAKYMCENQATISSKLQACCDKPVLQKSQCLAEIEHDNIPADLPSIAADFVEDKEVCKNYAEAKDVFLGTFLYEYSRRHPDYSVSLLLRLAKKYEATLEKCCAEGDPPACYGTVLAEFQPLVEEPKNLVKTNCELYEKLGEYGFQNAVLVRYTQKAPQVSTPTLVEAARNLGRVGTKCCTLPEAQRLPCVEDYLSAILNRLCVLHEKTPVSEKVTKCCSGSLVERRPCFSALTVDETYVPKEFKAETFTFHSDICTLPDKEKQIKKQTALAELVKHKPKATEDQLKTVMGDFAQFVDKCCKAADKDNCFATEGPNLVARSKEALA
From the text: Serum albumin (RSA) is a protein component of the highest content in blood and is known to have a property of taking in various hydrophobic molecules. FeTPPS is not an exception and is known to bind strongly to serum albumin (see, for example, V. E. Yushmanov et al, Mag. Res. Imaging, 14, 255-261 (1996), T. T. Tominaga et al, J. Inorg. Biochem., 65, 235-244 (1997), etc.). The effect of inducing urinary excretion of FeTPPS by Py3CD was thus compared with that by RSA. Specifically, an experiment was performed as follows.
FeTPPS was dissolved in a PBS buffer (pH 7.4) to prepare a 5 μM solution, and Py3CD and RSA (made by SIGMA. Co., Ltd.) were separately dissolved in the PBS buffer (pH 7.4) to prepare respective stock solutions. Ultraviolet-visible absorption spectra were measured with the same apparatuses as those used in EXAMPLE 1.
The FeTPPS solution was placed in a cuvette, ultraviolet-visible absorption spectra were measured while adding fixed amounts of the RSA solution to the cuvette, and at a point at which changes reached saturation, ultraviolet-visible absorption spectra were measured while adding the Py3CD solution in place of the RSA solution. FIG. 4(a) is a diagram showing the changes in the ultraviolet-visible absorption spectra and FIG. 4(b) is a titration plot.

| Compound | excretion of porphyrin in urine [1] | passage through the ultrafiltration membrane ([2]; FeTPPS held by RSA (equimolar mixture), before Py3CD addition) | passage through the ultrafiltration membrane ([2]; FeTPPS released from RSA by addition of Py3CD and included in Py3CD) | RSA amount at which the spectral changes reach saturation (Serum albumin (RSA)) | number of FeTPPS molecules that can bind to a single RSA molecule (Serum albumin (RSA)) |
| --- | --- | --- | --- | --- | --- |
| O=S(=O)(O)c1ccc(-c2c3nc(c(-c4ccc(S(=O)(=O)O)cc4)c4ccc([nH]4)c(-c4ccc(S(=O)(=O)O)cc4)c4nc(c(-c5ccc(S(=O)(=O)O)cc5)c5ccc2[nH]5)C=C4)C=C3)cc1 [TPPS, reference compound] | not excreted at all in urine |  |  |  |  |
| 5,10,15,20-tetrakis(4-sulfonatophenyl)porphyrin (II) iron complex [FeTPPS] | not excreted at all in urine | cannot pass through the ultrafiltration membrane | capable of passing through the ultrafiltration membrane | approximately ⅓ | approximately three |
